Reference: PubChem BioAssay (NCI)
Several values for one entry are separate records, joined by “and”; a condition that tells them apart may be missing. Equal entries are not always repeated.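 Values below derive from 48-hour exposures of cells grown in 96-well plates, with endpoints linearly interpolated between the two concentrations bracketing the appropriate inhibition level. The concentration for 50% growth inhibition is given as GI50. TGI: concentration producing complete growth inhibition.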

Assays:
Experiment in all cases: NCI-60 cell line screen, 48 h
MDA-MB-231 breast = tested on: MDA-MB-231 breast
A498 renal = tested on: A498 renal
HCT-116 colon = tested on: HCT-116 colon
HOP-92 NSCLC = tested on: HOP-92 NSCLC
MCF7 breast = tested on: MCF7 breast
K-562 leukemia = tested on: K-562 leukemia
SK-MEL-2 melanoma = tested on: SK-MEL-2 melanoma
NCI-H460 lung = tested on: NCI-H460 lung
SF-295 CNS = tested on: SF-295 CNS
OVCAR-4 ovarian = tested on: OVCAR-4 ovarian

SMILES	GI50 (MDA-MB-231 breast)	TGI (MDA-MB-231 breast)	GI50 (A498 renal)	TGI (A498 renal)	GI50 (HCT-116 colon)	TGI (HCT-116 colon)	GI50 (HOP-92 NSCLC)	TGI (HOP-92 NSCLC)	GI50 (MCF7 breast)	TGI (MCF7 breast)	GI50 (K-562 leukemia)	TGI (K-562 leukemia) [µM]	GI50 (SK-MEL-2 melanoma)	TGI (SK-MEL-2 melanoma)	GI50 (NCI-H460 lung)	TGI (NCI-H460 lung)	GI50 (SF-295 CNS)	TGI (SF-295 CNS)	GI50 (OVCAR-4 ovarian)	TGI (OVCAR-4 ovarian)
O=C1C(OCCOc2ccccc2)=C(OCCOc2ccccc2)C(=O)c2ccccc21	> 100 µM	> 100 µM	18.2 µM	> 100 µM	3.13 µM	> 100 µM	1.21 µM	> 100 µM	7.74 µM	> 100 µM	> 100 µM	> 100	18.6 µM	> 100 µM	3.05 µM	10.5 µM	5.11 µM	> 100 µM	7.1 µM	> 100 µM
CN1CCN(CCCCCN=c2cc3c(=O)n(CCCCCN4CCN(C)CC4)c(=O)c4c(NCCCCCN5CCN(C)CC5)cc5c(O)n(CCCCCN6CCN(C)CC6)c(=O)c2c5c4-3)CC1	2.38 µM	7.22 µM	19.2 µM	60 µM	3.31 µM	17.3 µM	1.84 µM	7.39 µM	2.52 µM	7.41 µM	3.62 µM	> 100	2.69 µM	7.43 µM	3.06 µM	10.2 µM	15.7 µM	57.2 µM	2.22 µM	5.61 µM
COc1cccc(Oc2ccccc2NC(=O)CNC(=O)c2cccc3ccccc23)c1	0.776 µM	7.68 µM	0.115 µM	2.11 µM	0.0962 µM	3.77 µM	0.202 µM	14.9 µM	0.1 µM	> 25 µM	0.13 µM	> 25	0.181 µM	> 25 µM	0.298 µM	4.53 µM	0.111 µM	> 25 µM	0.77 µM	> 25 µM
Oc1cc(-n2cccn2)c(O)cc1-n1cccn1	–	50.5 µM	–	> 92.2 µM	–	> 64.1 µM	–	39.8 µM	–	55.1 µM	–	39.3	–	> 100 µM	–	> 100 µM	–	60.2 µM	–	36.9 µM
COc1ccc(/C=C(/C)[N+](=O)[O-])cc1OC	1.97 µM and 2.38 µM	4.26 µM and 5.02 µM	5.13 µM and 4.73 µM	17.2 µM and 16.6 µM	1.76 µM and 1.56 µM	3.37 µM and 2.98 µM	1.78 µM and 2.48 µM	4.52 µM and 5.64 µM	1.23 µM and 1.09 µM	3.26 µM and 2.57 µM	1.31 µM and 1.72 µM	> 100	2.39 µM and 1.81 µM	4.9 µM and 4 µM	2.78 µM and 3.14 µM	7.78 µM and 9.48 µM	17.4 µM and 12.5 µM	32.4 µM and 27.1 µM	1.91 µM and 2.27 µM	3.88 µM and 4.77 µM
COc1cc2cc(Oc3ccc(NC(=O)c4ccc(Cl)c(Cl)c4)cc3)c(C)nc2cc1OC	9.89 µM	> 100 µM	20.6 µM	> 100 µM	4.26 µM	> 100 µM	16.1 µM	> 100 µM	5.32 µM	> 100 µM	7.23 µM	> 100	> 100 µM	> 100 µM	25.4 µM	> 100 µM	1.59 µM	> 100 µM	5.26 µM	> 100 µM
COc1ccc2c(-c3ccnc(Nc4cccc(OC(F)(F)F)c4)n3)cnn2n1	3.63 µM	> 25 µM	0.999 µM	10.6 µM	1.03 µM	3.96 µM	0.801 µM	7.11 µM	1.07 µM	6.15 µM	0.42 µM	> 25	1.39 µM	17.1 µM	1.06 µM	4.79 µM	0.683 µM	> 14.8 µM	3.32 µM	12.5 µM
CN1CCc2nc3sc(C(N)=O)c(N)c3c(-c3cccs3)c2C1	4.77 µM	> 100 µM	2.58 µM	7.27 µM	2.31 µM	> 100 µM	3.16 µM	9.16 µM	4.1 µM	> 100 µM	4.99 µM	> 100	2.67 µM	6.22 µM	3.71 µM	> 100 µM	3.61 µM	> 100 µM	7.38 µM	> 100 µM
COc1ccc(Nc2ccnc(N3CCN(c4ccnc5cc(Cl)ccc45)CC3)n2)cc1	1.51 µM	> 29.8 µM	0.342 µM	4.17 µM	0.485 µM	3.27 µM	0.32 µM	4.5 µM	1.01 µM	7.32 µM	0.444 µM	> 20.8	1.03 µM	3.27 µM	0.837 µM	4.68 µM	0.267 µM	1.08 µM	1.34 µM	> 100 µM
